Measured values from patent US20250122218A1, “MODULATORS OF CYSTIC FIBROSIS TRANSMEMBRANE CONDUCTANCE REGULATOR” (Vertex Pharmaceuticals Incorporated, priority 2022, published 2025).

Target: T1, CFTR in F508del/MF-HBE cells (Homo sapiens, UniProt P13569, DEL508-508)
T1 construct: human bronchial epithelial (HBE) cells derived from CF subjects heterozygous for F508del and a minimal function CFTR mutation; endogenous in cells; host or cells: primary human bronchial epithelial cells from CF subjects (F508del/MF-HBE)
Assay: Ussing chamber assay of CFTR-mediated short-circuit currents (identification of potentiator compounds)
Format: cell-based
Conditions: potentiator incubated 18-24 hours at 37° C. in combination with 10 μM corrector, in the presence of 20% human serum, CFTR-mediated ISC
Method: Ussing chamber experiments were performed using human bronchial epithelial (HBE) cells derived from CF subjects heterozygous for F508del and a minimal function CFTR mutation (F508del/MF-HBE) and cultured as previously described (Neuberger T, Burton B, Clark H, Van Goor F; Methods Mol. Biol. 2011:741:39-54). After four days the apical media was removed, and the cells were grown at an air liquid interface for >14 days prior to use.
To isolate the CFTR-mediated short-circuit (ISC) current, F508del/MF-HBE grown on Costar® Snapwell™ cell culture inserts were mounted in an Ussing chamber and the transepithelial ISC was measured under voltage-clamp recording conditions (Vhold=0 mV) at 37° C. The basolateral solution contained (in mM) 145 NaCl, 0.83 K2HPO4, 3.3 KH2PO4, 1.2 MgCl2, 1.2 CaCl2), 10 Glucose, 10 HEPES (pH adjusted to 7.4 with NaOH) and the apical solution contained (in mM) 145 NaGluconate, 1.2 MgCl2, 1.2 CaCl2), 10 glucose, 10 HEPES (pH adjusted to 7.4 with NaOH) and 30 μM amiloride to block the epithelial sodium channel. Forskolin (20 μM) was added to the apical surface to activate CFTR, followed by apical addition of a CFTR inhibitor cocktail consisting of BPO, GlyH-101 and CFTR inhibitor 172 (each at 20 μM final assay concentration) to specifically isolate CFTR currents. The CFTR-mediated ISC (μA/cm^2) for each condition was determined from the peak forskolin response to the steady-state current following inhibition.
The activity of the CFTR potentiator compounds on the CFTR-mediated ISC was determined in Ussing chamber studies as described above. The F508del/MF-HBE cell cultures were incubated with the potentiator compounds at a range of concentrations in combination with 10 μM (14S)-8-[3-(2-{dispiro[2.0.2.1]heptan-7-yl}ethoxy)-1H-pyrazol-1-yl]-12,12-dimethyl-2λ^6-thia-3,9,11,18,23-pentaazatetracyclo[17.3.1.111,14.05,10]tetracosa-1(22),5,7,9,19(23),20-hexaene-2,2,4-trione for 18-24 hours at 37° C. and in the presence of 20% human serum. The concentration of potentiator compounds and (14S)-8-[3-(2-{dispiro[2.0.2.1]heptan-7-yl}ethoxy)-1H-pyrazol-1-yl]-12,12-dimethyl-2λ^6-thia-3,9,11,18,23-pentaazatetracyclo[17.3.1.111,14.05,10]tetracosa-1(22),5,7,9,19(23),20-hexaene-2,2,4-trione used during the 18-24 hours incubations was kept constant throughout the Ussing chamber measurement of the CFTR-mediated ISC to ensure compounds were present throughout the entire experiment. The efficacy and potency of the putative F508del potentiators was compared to that of the known potentiator, ivacaftor (N-[2,4-bis(1,1-dimethylethyl)-5-hydroxyphenyl]-1,4-dihydro-4-oxoquinoline-3-carboxamide).

T1 sequence (P13569 with tags, fused parts or gaps DEL508-508): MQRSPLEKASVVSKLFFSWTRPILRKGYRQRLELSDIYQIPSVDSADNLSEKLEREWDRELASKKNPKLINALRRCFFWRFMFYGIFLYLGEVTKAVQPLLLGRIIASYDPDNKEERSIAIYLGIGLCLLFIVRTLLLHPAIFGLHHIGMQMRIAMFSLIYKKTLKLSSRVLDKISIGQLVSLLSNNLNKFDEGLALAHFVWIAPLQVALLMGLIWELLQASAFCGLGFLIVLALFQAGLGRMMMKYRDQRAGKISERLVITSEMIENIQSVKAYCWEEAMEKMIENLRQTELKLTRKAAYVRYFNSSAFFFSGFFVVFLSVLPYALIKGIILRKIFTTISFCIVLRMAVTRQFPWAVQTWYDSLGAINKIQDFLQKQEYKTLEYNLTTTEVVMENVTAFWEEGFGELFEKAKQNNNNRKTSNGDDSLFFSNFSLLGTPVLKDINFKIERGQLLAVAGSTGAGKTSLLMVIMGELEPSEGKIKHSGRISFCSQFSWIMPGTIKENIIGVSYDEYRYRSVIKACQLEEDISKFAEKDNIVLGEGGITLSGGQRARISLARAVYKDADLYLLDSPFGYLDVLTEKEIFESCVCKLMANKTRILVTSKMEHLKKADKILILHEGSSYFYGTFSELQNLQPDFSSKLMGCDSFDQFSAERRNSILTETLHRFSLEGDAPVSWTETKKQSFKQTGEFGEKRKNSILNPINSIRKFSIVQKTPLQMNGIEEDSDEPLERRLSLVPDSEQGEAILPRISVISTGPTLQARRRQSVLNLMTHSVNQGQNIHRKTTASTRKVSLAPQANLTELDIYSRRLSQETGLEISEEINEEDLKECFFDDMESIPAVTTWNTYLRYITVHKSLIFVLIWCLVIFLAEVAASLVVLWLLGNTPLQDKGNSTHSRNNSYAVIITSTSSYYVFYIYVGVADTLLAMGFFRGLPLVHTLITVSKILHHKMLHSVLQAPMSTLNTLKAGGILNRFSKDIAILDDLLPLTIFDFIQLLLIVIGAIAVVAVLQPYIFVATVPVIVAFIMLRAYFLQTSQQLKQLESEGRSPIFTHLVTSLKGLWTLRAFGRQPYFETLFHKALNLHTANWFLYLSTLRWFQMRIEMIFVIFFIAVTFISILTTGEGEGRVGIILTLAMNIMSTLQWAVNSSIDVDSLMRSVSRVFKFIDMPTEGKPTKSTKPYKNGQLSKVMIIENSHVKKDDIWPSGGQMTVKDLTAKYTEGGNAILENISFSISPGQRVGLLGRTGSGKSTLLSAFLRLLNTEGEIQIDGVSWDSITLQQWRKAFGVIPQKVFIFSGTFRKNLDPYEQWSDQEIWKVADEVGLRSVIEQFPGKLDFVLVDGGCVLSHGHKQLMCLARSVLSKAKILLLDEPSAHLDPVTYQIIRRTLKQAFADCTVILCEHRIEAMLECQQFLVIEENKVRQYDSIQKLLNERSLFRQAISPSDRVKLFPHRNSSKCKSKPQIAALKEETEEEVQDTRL

EC50 [µM] | Structure (SMILES)
> 1 | Nc1cc(C(F)(F)F)c2nc1-c1nnc(o1)C(O)(C(F)(F)F)CCCCCCC1=NN=C2O1 (single isomer, unassigned) [Compound 33, 20-amino-6,18-bis(trifluoromethyl)-22,23-dioxa-3,4,14,15,21-pentaazatetracyclo[15.3.1.12,5.113,16]tricosa-1(21),2,4,13,15,17,19-heptaen-6-ol]
< 0.5 | Nc1cc(C(F)(F)F)c2nc1-c1nnc(o1)C(O)(C(F)(F)F)CCC(=O)CCCC2=O (single isomer, unassigned) [Compound 34, 17-amino-6-hydroxy-6,15-bis(trifluoromethyl)-19-oxa-3,4,18-triazatricyclo[12.3.1.12,5]nonadeca-1(18),2,4,14,16-pentaene-9,13-dione]
> 1 | Nc1cc(C(F)(F)F)c2nc1-c1nnc(o1)C(O)(C(F)(F)F)CCC(=O)CCCC2=O (single isomer, unassigned) [Compound 35, 17-amino-6-hydroxy-6,15-bis(trifluoromethyl)-19-oxa-3,4,18-triazatricyclo[12.3.1.12,5]nonadeca-1(18),2,4,14,16-pentaene-9,13-dione]
> 1 | Nc1cc(C(F)(F)F)c2nc1-c1nnc(o1)C(O)(C(F)(F)F)CCCC(=O)CCC2=O (single isomer, unassigned) [Compound 36, 17-amino-6-hydroxy-6,15-bis(trifluoromethyl)-19-oxa-3,4,18-triazatricyclo[12.3.1.12,5]nonadeca-1(18),2,4,14,16-pentaene-10,13-dione]
> 1 | Nc1cc(C(F)(F)F)c2nc1-c1nnc(o1)C(O)(C(F)(F)F)CCCC(=O)CCC2=O (single isomer, unassigned) [Compound 37, 17-amino-6-hydroxy-6,15-bis(trifluoromethyl)-19-oxa-3,4,18-triazatricyclo[12.3.1.12,5]nonadeca-1(18),2,4,14,16-pentaene-10,13-dione]
< 0.5 | CC1CCCCC[C@](O)(C(F)(F)F)C2=NN=C(O2)c2nc(c(C(F)(F)F)cc2N)C1 (single isomer, unassigned) [Compound 55]
< 0.5 | CC1CCCCC[C@](O)(C(F)(F)F)C2=NN=C(O2)c2nc(c(C(F)(F)F)cc2N)C1 (single isomer, unassigned) [Compound 56]
< 0.5 | Nc1cc(C(F)(F)F)c2nc1-c1nnc(o1)C(O)(C(F)(F)F)c1cc(ccc1F)CCCCC2=O (single isomer, unassigned) [Compound 57, 20-amino-8-fluoro-6-hydroxy-6,18-bis(trifluoromethyl)-23-oxa-3,4,21-triazatetracyclo[15.3.1.12,5.17,11]tricosa-1(21),2,4,7(22),8,10,17,19-octaen-16-one]
0.5 to 1 | Nc1cc(C(F)(F)F)c2nc1-c1nnc(o1)C(O)(C(F)(F)F)c1cc(ccc1F)CCCCC2=O (single isomer, unassigned) [Compound 58, 20-amino-8-fluoro-6-hydroxy-6,18-bis(trifluoromethyl)-23-oxa-3,4,21-triazatetracyclo[15.3.1.12,5.17,11]tricosa-1(21),2,4,7(22),8,10,17,19-octaen-16-one]
> 1 | Nc1cc(C(F)(F)F)c2nc1-c1nnc(o1)C(O)(C(F)(F)F)c1cc(ccc1F)C=CCCC2=O (single isomer, unassigned) [Compound 59, 20-amino-8-fluoro-6-hydroxy-6,18-bis(trifluoromethyl)-23-oxa-3,4,21-triazatetracyclo[15.3.1.12,5.17,11]tricosa-1(21),2,4,7(22),8,10,12,17,19-nonaen-16-one]
< 0.5 | Nc1cc(C(F)(F)F)c2nc1-c1nnc(o1)C(O)(C(F)(F)F)c1cc(ccc1F)C=CCCC2=O (single isomer, unassigned) [Compound 60, 20-amino-8-fluoro-6-hydroxy-6,18-bis(trifluoromethyl)-23-oxa-3,4,21-triazatetracyclo[15.3.1.12,5.17,11]tricosa-1(21),2,4,7(22),8,10,12,17,19-nonaen-16-one]
< 0.5 | N#CC1CCCCc2ccc(F)c(c2)C(O)(C(F)(F)F)C2=NN=C(O2)c2nc1c(C(F)(F)F)cc2N (single isomer, unassigned) [Compound 67, 20-amino-8-fluoro-6-hydroxy-6,18-bis(trifluoromethyl)-23-oxa-3,4,21-triazatetracyclo[15.3.1.12,5.17,11]tricosa-1(21),2,4,7,9,11(22),17,19-octaene-16-carbonitrile]
< 0.5 | N#CC1CCCCc2ccc(F)c(c2)C(O)(C(F)(F)F)C2=NN=C(O2)c2nc1c(C(F)(F)F)cc2N (single isomer, unassigned) [Compound 68, 20-amino-8-fluoro-6-hydroxy-6,18-bis(trifluoromethyl)-23-oxa-3,4,21-triazatetracyclo[15.3.1.12,5.17,11]tricosa-1(21),2,4,7,9,11(22),17,19-octaene-16-carbonitrile]
> 1 | Nc1cc(C(F)(F)F)c2nc1-c1nnc(o1)C(F)(C(F)(F)F)CCCCCCC2=O (single isomer, unassigned) [Compound 71, 17-amino-6-fluoro-6,15-bis(trifluoromethyl)-19-oxa-3,4,18-triazatricyclo[12.3.1.12,5]nonadeca-1(18),2,4,14,16-pentaen-13-one]
< 0.5 | CN1CCCCCC(O)(C(F)(F)F)C2=NN=C(O2)c2nc(c(C(F)(F)F)cc2N)C1=O (single isomer, unassigned) [Compound 72, 17-Amino-6-hydroxy-12-methyl-6,15-bis(trifluoromethyl)-19-oxa-3,4,12,18-tetrazatricyclo[12.3.1.12,5]nonadeca-1(18),2,4,14,16-pentaen-13-one]
> 1 | CN1CCCCCC(O)(C(F)(F)F)C2=NN=C(O2)c2nc(c(C(F)(F)F)cc2N)C1=O (single isomer, unassigned) [Compound 73, 17-amino-6-hydroxy-12-methyl-6,15-bis(trifluoromethyl)-19-oxa-3,4,12,18-tetrazatricyclo[12.3.1.12,5]nonadeca-1(18),2,4,14,16-pentaen-13-one]
< 0.5 | Nc1cc(C(F)(F)F)c2nc1-c1nnc(o1)C(O)(C(F)(F)F)CCCCCN(Cc1ccccc1)C2=O (single isomer, unassigned) [Compound 74, 17-Amino-12-benzyl-6-hydroxy-6,15-bis (trifluoromethyl)-19-oxa-3,4,12,18-tetrazatricyclo [12.3.1.12,5] nonadeca-1(18),2,4,14,1 6-pentaen-13-one]
< 0.5 | Nc1cc(C(F)(F)F)c2nc1-c1nnc(o1)C(O)(C(F)(F)F)CCCCCN(C1CCC1)C2=O (single isomer, unassigned) [Compound 78, 17-Amino-12-cyclobutyl-6-hydroxy-6,15-bis (trifluoromethyl)-19-oxa-3,4,12,18-tetrazatricyclo [12.3.1.12,5] nonadeca-1(18),2,4,14,1 6-pentaen-13-one]
< 0.5 | CC1(C)CCC2CCCC[C@](O)(C(F)(F)F)C3=NN=C(O3)c3nc(c(C(F)(F)F)cc3N)C(=O)N21 (single isomer, unassigned) [Compound 114]
< 0.5 | CC1(C)CCC2CCCC[C@](O)(C(F)(F)F)C3=NN=C(O3)c3nc(c(C(F)(F)F)cc3N)C(=O)N21 (single isomer, unassigned) [Compound 115]
> 1 | N#Cc1cc(N)c2nc1C(=O)N(C1CC(F)(F)C1)CCCCCC(O)(C(F)(F)F)C1=NN=C2O1 (single isomer, unassigned) [Compound 197, 17-amino-12-(3,3-difluorocyclobutyl)-6-hydroxy-13-oxo-6-(trifluoromethyl)-19-oxa-3,4,12,18-tetrazatricyclo[12.3.1.12,5]nonadeca-1(18),2,4,14,16-pentaene-15-carbonitrile]
< 0.5 | Nc1cc(C(F)(F)F)c2nc1-c1nnc(o1)C(O)(C(F)(F)F)CCCCN(C1CC(F)(F)C1)C2=O (single isomer, unassigned) [Compound 198, 16-amino-11-(3,3-difluorocyclobutyl)-6-hydroxy-6,14-bis(trifluoromethyl)-18-oxa-3,4,11,17-tetrazatricyclo[11.3.1.12,5]octadeca-1(17),2,4,13,15-pentaen-12-one]
